From patent US6906074B2, “2-phenylpiperazine derivatives” (Nippon Zoki Pharmaceutical Co., Ltd., priority 2002, dated 2005)
Marks after values point to notes of the source that are not given here.

Columns and labels:
human NK1 receptors = human NK1 receptors (Homo sapiens, UniProt P25103); experiment: Binding assay for human NK1 receptors ((3H)-Sar9-SP, human NK1-CHO cells)
[1] = test system: Substance P-induced increase of vascular permeability (tachykinin receptor); experiment: Substance P-induced increase of vascular permeability in guinea pig skin (Evans Blue dye); format: in vivo, guinea pigs; conditions: Substance P 1 pmole/site, 10 mg/kg oral
Procedure: (§1) The compounds of the present invention and synthesized LY-303870 were suspended or dissolved in 0.5% sodium carboxymethylcellulose solution, and orally administered at the dose of 5 mL/kg. to male Hartley SPF guinea pigs of 6 week age.
(§2) Guinea pigs, sheared of fur, were anesthetized with ether and 1% Evan Blue dye in physiological saline (1 mL/500 g b.w.) was injected into their fore-leg intravenously. Immediately after the dye injection, SP (1 pmol/site), NKA (100 pmol/site) and NKB (100 pmol/site) in physiological saline were injected dorsal intradermally (0.05 mL/site) whereby the reaction of increase of vascular permeability was induced. Half an hour after tachykinin challenge, the animals were sacrificed by decapitation and bloodletting, and the dorsal skin was removed and the amount of transuded blue dye thereof was measured. Namely, the blue dyed sites were punched out using a punch for leather (16 mm diameter), of which 2 pieces were allowed to stand at 37° C. overnight in a covered tube with addition of 1 mL of 2 mol/L KOH solution. After stirring well, 6 mL of a mixture of 2 mol/L H3PO4 solution and acetone (1:3) were added thereto and Evans Blue dye was extracted by vigorous shaking for 10 minutes. After the precipitate was filtered off, the absorbance of the filtrate was measured at 620 nm with a spectrophotometer and the amount of dye was determined from the calibration curve. Nonspecific reaction was estimated from the amount of transuded dye by the injection of physiological saline. The significant difference in the average values between the control group and the test compound-treated group was calculated by means of a Student's t-test or Dunnett's test (Statistical Library I, two-sided test, Yukms).
(§3) The tested compounds were orally administered at a dose of 10 mg/kg at various points from 30 min to 8 hrs before the induction of tachykinin-induced increase of vascular permeability. An example of the results is shown in Table 2 (* and ** stand for the significant difference of p<0.05 and p<0.01 respectively compared to control).

[2] = test system: Neurokinin A-induced increase of vascular permeability (tachykinin receptor); experiment: Neurokinin A-induced increase of vascular permeability in guinea pig skin (Evans Blue dye); format: in vivo, guinea pigs; conditions: Neurokinin A 100 pmole/site, 10 mg/kg oral
Procedure: as §1, §2, §3

[3] = test system: Neurokinin B-induced increase of vascular permeability (tachykinin receptor); experiment: Neurokinin B-induced increase of vascular permeability in guinea pig skin (Evans Blue dye); format: in vivo, guinea pigs; conditions: Neurokinin B 100 pmole/site, 10 mg/kg oral
Procedure: as §1, §2, §3

[4] = 0.5 hr from administration to induction
[5] = 1 hr from administration to induction
[6] = 2 hr from administration to induction
[7] = 4 hr from administration to induction
[8] = 8 hr from administration to induction
[9] = 3 hr from administration to induction

Sequence of human NK1 receptors (P25103 whole entry): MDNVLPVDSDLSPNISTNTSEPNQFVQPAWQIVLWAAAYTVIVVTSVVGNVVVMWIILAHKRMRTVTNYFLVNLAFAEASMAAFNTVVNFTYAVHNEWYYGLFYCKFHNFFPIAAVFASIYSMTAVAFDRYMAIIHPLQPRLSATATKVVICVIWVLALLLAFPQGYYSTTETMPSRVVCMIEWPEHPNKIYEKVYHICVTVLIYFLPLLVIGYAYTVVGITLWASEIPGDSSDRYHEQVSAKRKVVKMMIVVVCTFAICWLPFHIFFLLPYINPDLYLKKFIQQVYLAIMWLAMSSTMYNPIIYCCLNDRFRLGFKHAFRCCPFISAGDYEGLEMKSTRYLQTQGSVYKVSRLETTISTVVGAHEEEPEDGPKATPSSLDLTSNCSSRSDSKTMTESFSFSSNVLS

## CN(C)Cc1[nH]nnc1CN1CC(=O)N[C@H](COCc2cc(C(F)(F)F)cc(C(F)(F)F)c2)[C@@H]1c1ccc(F)cc1.Cl.Cl
other
  melting point: 213 to 216 °C

## CN(C)Cc1[nH]nnc1CN1CC(=O)N(C)[C@H](COCc2cc(C(F)(F)F)cc(C(F)(F)F)c2)[C@@H]1c1ccc(F)cc1.Cl.Cl
other
  melting point: 142 to 145 °C

## Cl.O=C1CN[C@@H](c2ccccc2)[C@@H](COCc2cc(C(F)(F)F)cc(C(F)(F)F)c2)N1
other
  melting point: 219 to 221 °C

## O=C1CN(Cc2n[nH]c(=O)[nH]2)[C@@H](c2ccccc2)[C@@H](COCc2cc(C(F)(F)F)cc(C(F)(F)F)c2)N1 [Compound 12, (5S,6S)-6-(3,5-Bis(trifluoromethyl)benzyloxymethyl)-4-(5-oxo-4,5-dihydro-1H-(1,2,4)triazol-3-ylmethyl)-5-phenylpiperazin-2-one]
Human NK1 receptors
  IC50: 1.5 nM

## CN1C(=O)CN(Cc2n[nH]c(=O)[nH]2)[C@@H](c2ccccc2)[C@H]1COCc1cc(C(F)(F)F)cc(C(F)(F)F)c1 [Compound 26, (5S,6S)-6-(3,5-Bis(trifluoromethyl)benzyloxymethyl)-1-methyl-4-(5-oxo-4,5-dihydro-1H-(1,2,4)triazol-3-ylmethyl)-5-phenylpiperazin-2-one]
[1]; [4]
  amount of transuded blue dye, Mean ± S.E: 6.2 ± 1.5**
[1]; [5]
  amount of transuded blue dye, Mean ± S.E: 1.4 ± 0.6**
[1]; [6]
  amount of transuded blue dye, Mean ± S.E: 4.3 ± 0.9**
[1]; [7]
  amount of transuded blue dye, Mean ± S.E: 4.9 ± 1.3**
[1]; [8]
  amount of transuded blue dye, Mean ± S.E: 11.9 ± 2.4**
[2]; [4]
  amount of transuded blue dye, Mean ± S.E: 3.6 ± 0.7**
[2]; [5]
  amount of transuded blue dye, Mean ± S.E: 1.0 ± 0.5**
[2]; [6]
  amount of transuded blue dye, Mean ± S.E: 2.6 ± 1.4**
[2]; [7]
  amount of transuded blue dye, Mean ± S.E: 3.6 ± 2.6**
[2]; [8]
  amount of transuded blue dye, Mean ± S.E: 10.1 ± 3.3
[3]; [4]
  amount of transuded blue dye, Mean ± S.E: 1.4 ± 0.9**
[3]; [5]
  amount of transuded blue dye, Mean ± S.E: 0.1 ± 0.1**
[3]; [6]
  amount of transuded blue dye, Mean ± S.E: 0.5 ± 0.4**
[3]; [7]
  amount of transuded blue dye, Mean ± S.E: 1.0 ± 0.4**
[3]; [8]
  amount of transuded blue dye, Mean ± S.E: 9.4 ± 1.6**
Human NK1 receptors
  IC50: 0.04 nM

## O=C1CN(Cc2n[nH]c(=O)[nH]2)[C@H](c2ccccc2)[C@H](COCc2cc(C(F)(F)F)cc(C(F)(F)F)c2)N1 [Compound 27, (5R,6R)-6-(3,5-Bis(trifluoromethyl)benzyloxymethyl)-4-(5-oxo-4,5-dihydro-1H-(1,2,4)triazol-3-ylmethyl)-5-phenylpiperazin-2-one]
other
  melting point: 138 to 140 °C

## O=C1CN(Cc2n[nH]c(=O)[nH]2)[C@@H](c2ccc(F)cc2)[C@@H](COCc2cc(C(F)(F)F)cc(C(F)(F)F)c2)N1 [Compound 32, (5S,6S)-6-(3,5-Bis(trifluoromethyl)benzyloxymethyl)-5-(4-fluorophenyl)-4-(5-oxo-4,5-dihydro-1H-(1,2,4)triazol-3-ylmethyl)piperazin-2-one]
other
  melting point: 129 to 132 °C
Human NK1 receptors
  IC50: 0.24 nM

## CN1C(=O)CN(Cc2n[nH]c(=O)[nH]2)[C@@H](c2ccc(F)cc2)[C@H]1COCc1cc(C(F)(F)F)cc(C(F)(F)F)c1 [Compound 38, (5S,6S)-6-(3,5-Bis(trifluoromethyl)benzyloxymethyl)-5-(4-fluorophenyl)-1-methyl-4-(5-oxo-4,5-dihydro-1H-(1,2,4)triazol-3-ylmethyl)piperazin-2-one]
other
  melting point: 212 to 213 °C

## O=C1CN(Cc2n[nH]c(=O)[nH]2)[C@@H](c2ccc(F)cc2)[C@@H](COCc2cc(C(F)(F)F)cc(C(F)(F)F)c2)N1 [Compound 40, (5S,6S)-6-(3,5-Bis(trifluoromethyl)benzyloxymethyl)-5-(4-fluorophenyl)-4-(5-oxo-4,5-dihydro-1H-(1,2,4)triazol-3-ylmethyl)piperazin-2-one]
other
  melting point: 138 to 140 °C

## COc1ccccc1CN(C[C@@H](Cc1c[nH]c2ccccc12)NC(=O)CN1CCC(N2CCCCC2)CC1)C(C)=O [LY-303870, reference compound]
[1]; [4]
  amount of transuded blue dye, Mean ± S.E: 6.3 ± 2.1**
[1]; [5]
  amount of transuded blue dye, Mean ± S.E: 7.8 ± 2.5**
[1]; [6]
  amount of transuded blue dye, Mean ± S.E: 17.0 ± 3.4
[1]; [9]
  amount of transuded blue dye, Mean ± S.E: 12.2 ± 2.2**
[1]; [7]
  amount of transuded blue dye, Mean ± S.E: 14.4 ± 0.9**
[2]; [4]
  amount of transuded blue dye, Mean ± S.E: 5.3 ± 2.3**
[2]; [5]
  amount of transuded blue dye, Mean ± S.E: 5.8 ± 1.9**
[2]; [6]
  amount of transuded blue dye, Mean ± S.E: 14.5 ± 5.0
[2]; [9]
  amount of transuded blue dye, Mean ± S.E: 11.1 ± 4.3
[2]; [7]
  amount of transuded blue dye, Mean ± S.E: 10.8 ± 3.4
[3]; [4]
  amount of transuded blue dye, Mean ± S.E: 2.0 ± 1.2**
[3]; [5]
  amount of transuded blue dye, Mean ± S.E: 5.0 ± 2.2**
[3]; [6]
  amount of transuded blue dye, Mean ± S.E: 12.0 ± 3.2*
[3]; [9]
  amount of transuded blue dye, Mean ± S.E: 7.7 ± 1.8**
[3]; [7]
  amount of transuded blue dye, Mean ± S.E: 13.6 ± 1.1**
